Test results from US20060069132A1, “Azolecarboxamide herbicides” (priority 2004, published 2006).

Key:
barnyardgrass [1] = experiment: Test A pre-/postemergence herbicide test; assay type: in vivo, Echinochloa crus-galli
Method in brief: (§1)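 Plants are held in greenhouse about ten days after treatment, then compared with untreated controls and scored 0 (no effect) to 100 (complete control). Preemergence dosing is a directed soil spray on sown sandy loam; postemergence dosing is spray to runoff at 2–10 cm height.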

pigweed = experiment: Test B pre-/postemergence herbicide test; assay type: in vivo, Amaranthus retroflexus
Method in brief: (§2)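 Visual rating, 0 (no effect) to 100 (complete control), versus untreated controls after 13–15 d in greenhouse. Pre- and postemergence applications (postemergence plants 2–18 cm, 1–4 leaves); flooded paddy arm at 2-leaf stage. Compounds in non-phytotoxic solvent plus surfactant.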

velvetleaf [2] = experiment: Test B pre-/postemergence herbicide test; assay type: in vivo, Abutilon theophrasti
Method in brief: as §2

ducksalad = experiment: Test B flooded paddy test; assay type: in vivo, Heteranthera limosa; conditions: 1000 g ai/ha, scale 0 to 100 (0 no effect, 100 complete control)
Method in brief: (§3)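 Visual control ratings, 0–100 versus untreated controls, taken after 13 to 15 days in the greenhouse. Blackgrass received a postemergence spray at the 1- to 4-leaf stage (2–18 cm); ducksalad, umbrella sedge and barnyardgrass were flooded-paddy treated at 2 leaves.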

Surinam grass = experiment: Test B pre-/postemergence herbicide test; assay type: in vivo, Urochloa decumbens
Method in brief: as §2

morningglory [3] = experiment: Test A pre-/postemergence herbicide test; assay type: in vivo, Ipomoea spp.
Method in brief: as §1

blackgrass = experiment: Test B postemergence herbicide test; assay type: in vivo, Alopecurus myosuroides
Method in brief: as §3

barnyardgrass [4] = experiment: Test B pre-/postemergence herbicide test; assay type: in vivo, Echinochloa crus-galli
Method in brief: (§4)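 Response was scored visually 13 to 15 days after treatment against untreated greenhouse controls, 0 meaning no effect and 100 complete control. Formulations (solvent mixture plus surfactant) went onto soil after planting, onto foliage of 1- to 4-leaf plants, and onto 2-leaf plants in a flooded paddy set including rice and barnyardgrass.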

velvetleaf [5] = experiment: Test A pre-/postemergence herbicide test; assay type: in vivo, Abutilon theophrasti
Method in brief: as §1

large crabgrass [6] = experiment: Test B pre-/postemergence herbicide test; assay type: in vivo, Digitaria sanguinalis
Method in brief: as §2

redroot pigweed = experiment: Test A pre-/postemergence herbicide test; assay type: in vivo, Amaranthus retroflexus
Method in brief: as §1

barnyardgrass [7] = experiment: Test B flooded paddy test; assay type: in vivo, Echinochloa crus-galli; conditions: 1000 g ai/ha, scale 0 to 100 (0 no effect, 100 complete control)
Method in brief: as §3

wheat = experiment: Test B postemergence herbicide test; assay type: in vivo, Triticum aestivum; design: key to Wheat plant response rating: 0 = no effect, 100 = complete control
Method in brief: (§5)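 Visual ratings, 0 (no effect) to 100 (complete control), made versus controls after 13–15 d greenhouse. Paddy plants treated at 2-leaf stage; postemergence plants at 1- to 4-leaf stage, 2–18 cm tall.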

cocklebur = experiment: Test B pre-/postemergence herbicide test; assay type: in vivo, Xanthium strumarium
Method in brief: as §4

giant foxtail [8] = experiment: Test A pre-/postemergence herbicide test; assay type: in vivo, Setaria faberi
Method in brief: as §1

large crabgrass [9] = experiment: Test A pre-/postemergence herbicide test; assay type: in vivo, Digitaria sanguinalis
Method in brief: as §1

lambsquarters = experiment: Test B pre-/postemergence herbicide test; assay type: in vivo, Chenopodium album
Method in brief: as §2

[10] = tested on: small flower umbrella sedge; experiment: Test B flooded paddy test; assay type: in vivo, Cyperus difformis; conditions: 1000 g ai/ha, scale 0 to 100 (0 no effect, 100 complete control)
Method in brief: as §3

rice = experiment: Test B flooded paddy test; assay type: in vivo, Oryza sativa; conditions: 1000 g ai/ha, scale 0 to 100 (0 no effect, 100 complete control)
Method in brief: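 Read-out: visual comparison with controls, scored 0 to 100, where 100 means complete control and 0 no effect. Formulated chemicals were applied postemergence to plants 2–18 cm tall (1- to 4-leaf), or to flooded-paddy plants at the 2-leaf stage, then held 13 to 15 days under glass.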

wild oat = experiment: Test B postemergence herbicide test; assay type: in vivo, Avena fatua
Method in brief: as §5

giant foxtail [11] = experiment: Test B pre-/postemergence herbicide test; assay type: in vivo, Setaria faberi
Method in brief: as §2

morningglory [12] = experiment: Test B pre-/postemergence herbicide test; assay type: in vivo, Ipomoea coccinea
Method in brief: as §4

corn = experiment: Test B pre-/postemergence herbicide test; assay type: in vivo, Zea mays
Method in brief: as §2

[13] = Postemergence, 125 g ai/ha, 0 to 100 scale, 0 no effect, 100 complete control
[14] = Postemergence, 500 g ai/ha, 0 to 100 scale, 0 no effect, 100 complete control
[15] = preemergence, 125 g ai/ha, visual injury, 0 to 100 scale (0 no effect, 100 complete control)
[16] = preemergence, 500 g ai/ha, visual injury, 0 to 100 scale (0 no effect, 100 complete control)
[17] = 125 g ai/ha; 0 = no effect, 100 = complete control; preemergence
[18] = 125 g ai/ha; visual rating, scale 0 (no effect) to 100 (complete control); postemergence
[19] = 500 g ai/ha; visual rating, 0 = no effect, 100 = complete control; preemergence
[20] = postemergence, 500 g ai/ha; scale 0 to 100, 0 is no effect, 100 is complete control
[21] = Postemergence, 2000 g ai/ha, 0 to 100 scale, 0 no effect, 100 complete control
[22] = Preemergence, 2000 g ai/ha, visual rating, 0 to 100 scale (0 no effect, 100 complete control)
[23] = 500 g ai/ha; visual rating 0-100, 0 no effect, 100 complete control; preemergence
[24] = postemergence, 125 g ai/ha; visual rating, scale 0 (no effect) to 100 (complete control)
[25] = postemergence, 500 g ai/ha; visual rating, scale 0 (no effect) to 100 (complete control)

CC(=NO)c1cccc(NC(=O)c2cc(C(C)(C)C)n[nH]2)c1 [Compound 311]
50: Barnyardgrass plant response rating (barnyardgrass [7])
60: Ducksalad plant response rating (ducksalad) | Rice plant response rating (rice)
10: Barnyardgrass plant response rating (barnyardgrass [1]; [14]) | Velvetleaf plant response rating (velvetleaf [5]; [14]) | Crabgrass, Large plant response rating (large crabgrass [9]; [14])
0: Barnyardgrass plant response rating (barnyardgrass [1]; [13]) | Barnyardgrass plant response rating (barnyardgrass [1]; [15]) | Barnyardgrass plant response rating (barnyardgrass [1]; [16]) | Pigweed plant response rating (0 to 100 scale) (pigweed; [17]) | Pigweed plant response rating (pigweed; [18]) | Plant response rating, Pigweed (pigweed; [19]) | Pigweed plant response rating (pigweed; [20]) | Velvetleaf plant response rating (velvetleaf [2]; [18]) | Plant response rating, Velvetleaf (velvetleaf [2]; [19]) | Velvetleaf plant response rating (velvetleaf [2]; [20]) | Surinam Grass plant response rating (0 to 100 scale) (Surinam grass; [17]) | Surinam Grass plant response rating (Surinam grass; [18]) | Plant response rating, Surinam Grass (Surinam grass; [19]) | Surinam Grass plant response rating (Surinam grass; [20]) | Morningglory plant response rating (morningglory [3]; [13]) | Morningglory plant response rating (morningglory [3]; [14]) | Morningglory plant response rating (morningglory [3]; [15]) | Morningglory plant response rating (morningglory [3]; [16]) | Blackgrass plant response rating (blackgrass; [18]) | Blackgrass plant response rating (blackgrass; [20]) | Barnyardgrass plant response rating (0 to 100 scale) (barnyardgrass [4]; [17]) | Barnyardgrass plant response rating (barnyardgrass [4]; [18]) | Plant response rating, Barnyardgrass (barnyardgrass [4]; [19]) | Barnyardgrass plant response rating (barnyardgrass [4]; [20]) | Velvetleaf plant response rating (velvetleaf [5]; [13]) | Velvetleaf plant response rating (velvetleaf [5]; [15]) | Velvetleaf plant response rating (velvetleaf [5]; [16]) | Crabgrass, Large plant response rating (0 to 100 scale) (large crabgrass [6]; [17]) | Crabgrass, Large plant response rating (large crabgrass [6]; [18]) | Plant response rating, Crabgrass, Large (large crabgrass [6]; [19]) | Crabgrass, Large plant response rating (large crabgrass [6]; [20]) | Pigweed plant response rating (redroot pigweed; [13]) | Pigweed plant response rating (redroot pigweed; [14]) | Pigweed plant response rating (redroot pigweed; [15]) | Pigweed plant response rating (redroot pigweed; [16]) | Wheat plant response rating (wheat; [18]) | Wheat plant response rating (wheat; [20]) | Cocklebur plant response rating (0 to 100 scale) (cocklebur; [17]) | Cocklebur plant response rating (cocklebur; [18]) | Plant response rating, Cocklebur (cocklebur; [19]) | Cocklebur plant response rating (cocklebur; [20]) | Foxtail, Giant plant response rating (giant foxtail [8]; [13]) | Foxtail, Giant plant response rating (giant foxtail [8]; [14]) | Foxtail, Giant plant response rating (giant foxtail [8]; [15]) | Foxtail, Giant plant response rating (giant foxtail [8]; [16]) | Crabgrass, Large plant response rating (large crabgrass [9]; [13]) | Crabgrass, Large plant response rating (large crabgrass [9]; [15]) | Crabgrass, Large plant response rating (large crabgrass [9]; [16]) | Lambsquarters plant response rating (0 to 100 scale) (lambsquarters; [17]) | Lambsquarters plant response rating (lambsquarters; [18]) | Plant response rating, Lambsquarters (lambsquarters; [19]) | Lambsquarters plant response rating (lambsquarters; [20]) | Oat, Wild plant response rating (wild oat; [18]) | Oat, Wild plant response rating (wild oat; [20]) | Foxtail, Giant plant response rating (0 to 100 scale) (giant foxtail [11]; [17]) | Foxtail, Giant plant response rating (giant foxtail [11]; [18]) | Plant response rating, Foxtail, Giant (giant foxtail [11]; [19]) | Foxtail, Giant plant response rating (giant foxtail [11]; [20]) | Morningglory plant response rating (0 to 100 scale) (morningglory [12]; [17]) | Morningglory plant response rating (morningglory [12]; [18]) | Plant response rating, Morningglory (morningglory [12]; [19]) | Morningglory plant response rating (morningglory [12]; [20]) | Corn plant response rating (0 to 100 scale) (corn; [17]) | Corn plant response rating (corn; [18]) | Plant response rating, Corn (corn; [19]) | Corn plant response rating (corn; [20])
30: Sedge, Umbrella plant response rating [10]

CC(=NO)c1cccc(NC(=O)c2cn(C(C)C)nc2C)c1 [Compound 180]
95: Plant response rating, Pigweed (redroot pigweed; [21])
30: Plant response rating, Barnyardgrass (barnyardgrass [1]; [21]) | Pigweed plant response rating (redroot pigweed; [14])
15: Plant response rating, Morningglory (morningglory [3]; [21]) | Plant response rating, Velvetleaf (velvetleaf [5]; [21]) | Velvetleaf plant response rating (velvetleaf [5]; [22]) | Foxtail, Giant plant response rating (giant foxtail [8]; [14])
20: Barnyardgrass plant response rating (barnyardgrass [1]; [14]) | Ducksalad plant response rating (ducksalad; visual rating, 13 to 15 days) | Barnyardgrass plant response rating (barnyardgrass [7]; visual rating, 13 to 15 days) | Plant response rating, Foxtail, Giant (giant foxtail [8]; [21]) | Crabgrass, Large plant response rating (large crabgrass [9]; [14])
50: Crabgrass, Large plant response rating (large crabgrass [9]; [22])
0: Barnyardgrass plant response rating (barnyardgrass [1]; [22]) | Barnyardgrass plant response rating (barnyardgrass [1]; [16]) | Pigweed plant response rating (0 to 100 scale) (pigweed; [17]) | Plant response rating, Pigweed (pigweed; [23]) | Pigweed plant response rating (pigweed; [24]) | Pigweed plant response rating (pigweed; [25]) | Velvetleaf plant response rating (0 to 100 scale) (velvetleaf [2]; [17]) | Plant response rating, Velvetleaf (velvetleaf [2]; [23]) | Velvetleaf plant response rating (velvetleaf [2]; [24]) | Velvetleaf plant response rating (velvetleaf [2]; [25]) | Surinam Grass plant response rating (0 to 100 scale) (Surinam grass; [17]) | Plant response rating, Surinam Grass (Surinam grass; [23]) | Surinam Grass plant response rating (Surinam grass; [24]) | Surinam Grass plant response rating (Surinam grass; [25]) | Morningglory plant response rating (morningglory [3]; [16]) | Blackgrass plant response rating (blackgrass; [24]) | Blackgrass plant response rating (blackgrass; [25]) | Barnyardgrass plant response rating (0 to 100 scale) (barnyardgrass [4]; [17]) | Plant response rating, Barnyardgrass (barnyardgrass [4]; [23]) | Barnyardgrass plant response rating (barnyardgrass [4]; [24]) | Barnyardgrass plant response rating (barnyardgrass [4]; [25]) | Velvetleaf plant response rating (velvetleaf [5]; [16]) | Crabgrass, Large plant response rating (0 to 100 scale) (large crabgrass [6]; [17]) | Plant response rating, Crabgrass, Large (large crabgrass [6]; [23]) | Crabgrass, Large plant response rating (large crabgrass [6]; [24]) | Crabgrass, Large plant response rating (large crabgrass [6]; [25]) | Pigweed plant response rating (redroot pigweed; [16]) | Wheat plant response rating (wheat; [24]) | Wheat plant response rating (wheat; [25]) | Cocklebur plant response rating (0 to 100 scale) (cocklebur; [17]) | Plant response rating, Cocklebur (cocklebur; [23]) | Cocklebur plant response rating (cocklebur; [24]) | Cocklebur plant response rating (cocklebur; [25]) | Foxtail, Giant plant response rating (giant foxtail [8]; [16]) | Lambsquarters plant response rating (0 to 100 scale) (lambsquarters; [17]) | Plant response rating, Lambsquarters (lambsquarters; [23]) | Lambsquarters plant response rating (lambsquarters; [24]) | Lambsquarters plant response rating (lambsquarters; [25]) | Sedge, Umbrella plant response rating ([10]; visual rating, 13 to 15 days) | Rice plant response rating (rice; visual rating, 13 to 15 days) | Oat, Wild plant response rating (wild oat; [24]) | Oat, Wild plant response rating (wild oat; [25]) | Foxtail, Giant plant response rating (0 to 100 scale) (giant foxtail [11]; [17]) | Plant response rating, Foxtail, Giant (giant foxtail [11]; [23]) | Foxtail, Giant plant response rating (giant foxtail [11]; [24]) | Foxtail, Giant plant response rating (giant foxtail [11]; [25]) | Morningglory plant response rating (0 to 100 scale) (morningglory [12]; [17]) | Plant response rating, Morningglory (morningglory [12]; [23]) | Morningglory plant response rating (morningglory [12]; [24]) | Morningglory plant response rating (morningglory [12]; [25]) | Corn plant response rating (0 to 100 scale) (corn; [17]) | Plant response rating, Corn (corn; [23]) | Corn plant response rating (corn; [24]) | Corn plant response rating (corn; [25])
90: Pigweed plant response rating (redroot pigweed; [22])
35: Plant response rating, Crabgrass, Large (large crabgrass [9]; [21])
10: Morningglory plant response rating (morningglory [3]; [14]) | Morningglory plant response rating (morningglory [3]; [22]) | Velvetleaf plant response rating (velvetleaf [5]; [14]) | Foxtail, Giant plant response rating (giant foxtail [8]; [22]) | Crabgrass, Large plant response rating (large crabgrass [9]; [16])
